Patent US9849190B2, “Peptide having cancer selective translocation function and use thereof” (SNU R&DB FOUNDATION, priority 2012, dated 2017)

Legend:
[1] = Slot-blot analysis of binding to heparin; settings: FIG. 2
From the text: (§1) This is believed to be because the tumor-penetrating ability of the VPTD peptide of the present invention was maximized in the tumor tissue and the VPTD peptide did bind specifically to VEGF to inhibit vascular formation essential for the formation and progression of tumors. […] As a result, it could be seen that the VPTD peptide and the HPTD peptide did all bind to VEGF and heparin, which are overexpressed in tumor cells or tumor tissue.

[2] = test system: tumor cell line (MDA-MB-231, ATCC); experiment: Tumor cell penetration of fluorescent-labelled peptides (FACS, confocal microscopy); type: cell-based; settings: for fluorescence of the tumor cells measured by FACS: MDA-MB-231, 60 minutes after inoculation, various peptide concentrations, FIG. 1A; for ability to penetrate the tumor cell line, confocal laser scanning microscope: MDA-MB-231, various peptide concentrations, FIG. 1B
Experimental: In order to test the tumor cell-targeting and tumor cell-penetrating abilities of the VPTD peptide of SEQ ID NO: 1 and the HPTD peptide of […], prepared in Example 1, the termini of the prepared peptides were labeled with a fluorescent dye, and then each of the peptides was inoculated into a tumor cell line (MDA-MB-231, ATCC) at various concentrations.
60 minutes after the inoculation, the fluorescence of the cells was measured by FACS, and the results of the measurement are shown in FIGS. 1A and 1B.

VEGF = experiment: Slot-blot analysis of binding to VEGF; settings: FIG. 2
From the text: as §1

tumor induced in mice = experiment: Tumor inhibitory effect in tumor-induced mice; type: in vivo; settings: injected, volume measured every 3-4 days for 30 days, versus control, FIG. 3
Experimental: In order to test the effects of the VPTD peptide of SEQ ID NO: 1 (VSRRRRRRGGRRRR) and the HPTD peptide of SEQ ID NO: (CSSRKKNPNCRRH), prepared in Example 1, and the tumor-targeting and tumor-penetrating peptide-drug conjugates prepared in Example 2, a tumor was induced in mice, and when the tumor grew to a predetermined size, each of the peptides prepared in Example 1 and the tumor-targeting and tumor-penetrating peptide-drug conjugates prepared in Example 2 was injected into the mice. After injection, the volume of the tumor was measured at intervals of 3-4 days for 30 days. On day 30, the mice were sacrificed, and the tumor was extracted and photographed.
as §1

binding to heparin [1]	binding to VEGF (VEGF)	Sequence	fluorescence of the tumor cells measured by FACS [2]	ability to penetrate the tumor cell line, confocal laser scanning microscope [2]	progression of the tumor (tumor volume) (tumor induced in mice)
did all bind	did all bind	VSRRRRRRGGRRRR (VPTD) [VPTD peptide]	increased in a manner dependent on the concentration of the peptide	increased in a manner dependent on the concentration of the peptide	significantly inhibited
did all bind	did all bind	CSSRKKNPNCRRH (HPTD) [HPTD peptide]	increased in a manner dependent on the concentration of the peptide	increased in a manner dependent on the concentration of the peptide	–
